Data taken from US7875647B2, “Heteroaryl-pyrazole derivatives as cannabinoid CB1 receptor antagonists” (Green Cross Corporation, priority 2006, dated 2011).

biological target: T1, Cannabinoid-1 receptor (CB1R) (Rattus norvegicus, UniProt P20272); experiment: Cannabinoid-1 receptor (CB1R) binding affinity assay ([3H]CP-55940, rat CB-1 receptor binding protocol); conditions: brain tissue of SD rats, [3H]CP-55940, 30° C. 60 min; read-out: IC50
T1 construct: The tissue obtained from the brain of SD rats was homogenized; from tissue; host or cells: brain of SD rats (membrane pellet of the homogenate)
T1 sequence (P20272 whole entry): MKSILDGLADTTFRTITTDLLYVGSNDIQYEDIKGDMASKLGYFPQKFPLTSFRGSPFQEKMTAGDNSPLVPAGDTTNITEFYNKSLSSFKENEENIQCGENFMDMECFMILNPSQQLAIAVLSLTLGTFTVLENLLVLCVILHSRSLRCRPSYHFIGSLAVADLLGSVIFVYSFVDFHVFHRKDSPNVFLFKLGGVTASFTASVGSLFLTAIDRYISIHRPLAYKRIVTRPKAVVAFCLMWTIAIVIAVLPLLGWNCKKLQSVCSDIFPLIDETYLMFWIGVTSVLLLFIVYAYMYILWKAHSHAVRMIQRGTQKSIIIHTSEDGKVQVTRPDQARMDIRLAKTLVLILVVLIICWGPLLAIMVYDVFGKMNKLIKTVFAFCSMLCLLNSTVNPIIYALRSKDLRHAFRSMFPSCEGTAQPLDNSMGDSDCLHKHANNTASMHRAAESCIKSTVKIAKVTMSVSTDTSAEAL

Row | SMILES | IC50
1 | Cc1nnc(-c2nn(-c3ccc(Cl)cc3Cl)c(-c3ccc(Cl)cc3)c2C)s1 [Example 360, 2-(5-(4-chlorophenyl)-1-(2,4-dichlorophenyl)-4-methyl-1H-pyrazol-3-yl)-5-methyl-1,3,4-thiadiazole] | 97.2 nM
2 | C=CCOC(C)(C)c1nnc(-c2nn(-c3ccc(Cl)cc3Cl)c(-c3ccc(Cl)cc3)c2C)s1 [Example 456, 2-(2-(allyloxy)propan-2-yl)-5-(5-(4-chlorophenyl)-1-(2,4-dichlorophenyl)-4-methyl-1H-pyrazol-3-yl)-1,3,4-thiadiazole] | 61 nM
3 | CCc1c(-c2nnc(C3(C#N)CC3)o2)nn(-c2ccc(Cl)cc2Cl)c1-c1ccc(Cl)cc1 [Example 268, 1-(5-(5-(4-chlorophenyl)-1-(2,4-dichlorophenyl)-4-ethyl-1H-pyrazol-3-yl)-1,3,4-oxadiazol-2-yl)cyclopropanecarbonitrile] | 83.8 nM
4 | CC(C)(C)c1nnc(-c2nn(-c3ccc(Cl)cc3Cl)c(-c3ccc(Br)cc3)c2Cn2cncn2)o1 [Example 329, 2-(4-((1H-1,2,4-triazol-1-yl)methyl)-5-(4-bromophenyl)-1-(2,4-dichlorophenyl)-1H-pyrazol-3-yl)-5-tert-butyl-1,3,4-oxadiazole] | 2.75 nM
5 | Cc1c(-c2cc(C(C)(C)C)no2)nn(-c2ccc(Cl)cc2Cl)c1-c1ccc(Cl)cc1 [Example 651, 3-tert-butyl-5-(5-(4-chlorophenyl)-1-(2,4-dichlorophenyl)-4-methyl-1H-pyrazol-3-yl)isoxazole] | 95.2 nM
6 | Cc1c(-c2nnn(Cc3ccccn3)n2)nn(-c2ccc(Cl)cc2Cl)c1-c1ccc(Cl)cc1 [Example 584, 2-((5-(5-(4-Chlorophenyl)-1-(2,4-dichlorophenyl)-4-methyl-1H-pyrazol-3-yl)-2H-tetrazol-2-yl)methyl)pyridine] | 93 nM
7 | Cc1c(-c2nnn(Cc3ccsc3)n2)nn(-c2ccc(Cl)cc2Cl)c1-c1ccc(Cl)cc1 [Example 598, 5-(5-(4-Chlorophenyl)-1-(2,4-dichlorophenyl)-4-methyl-1H-pyrazol-3-yl)-2-(thiophen-3-ylmethyl)-2H-tetrazole] | 77.6 nM
8 | Cc1c(-c2nnc(C3(c4ccc(Cl)cc4)CCC3)o2)nn(-c2cc(Cl)ccc2Cl)c1-c1ccc(Cl)cc1 [Example 168, 2-(5-(4-chlorophenyl)-1-(2,5-dichlorophenyl)-4-methyl-1H-pyrazol-3-yl)-5-(1-(4-chlorophenyl)cyclobutyl)-1,3,4-oxadiazole] | 200 nM
9 | Cc1c(-c2nnn(Cc3cccnc3)n2)nn(-c2ccc(Cl)cc2Cl)c1-c1ccc(Cl)cc1 [Example 586, 3-((5-(5-(4-Chlorophenyl)-1-(2,4-dichlorophenyl)-4-methyl-1H-pyrazol-3-yl)-2H-tetrazol-2-yl)methyl)pyridine] | 100 nM
10 | CC(=O)OCC(C)(C)c1nnc(-c2nn(-c3ccc(Cl)cc3Cl)c(-c3ccc(Cl)cc3)c2C)o1 [Example 252, 2-(5-(5-(4-chlorophenyl)-1-(2,4-dichlorophenyl)-4-methyl-1H-pyrazol-3-yl)-1,3,4-oxadiazol-2-yl)-2-methylpropyl acetate] | 54.5 nM
11 | Cc1c(-c2nnc(C3CCCCC3)s2)nn(-c2ccccc2Cl)c1-c1ccc(Cl)cc1 [Example 408, 2-(1-(2-chlorophenyl)-5-(4-chlorophenyl)-4-methyl-1H-pyrazol-3-yl)-5-cyclohexyl-1,3,4-thiadiazole] | 61 nM
12 | Cc1c(-c2nnc(C3(C)CC3)s2)nn(-c2ccc(Cl)cc2Cl)c1-c1ccc(Cl)cc1 [Example 469, 2-(5-(4-chlorophenyl)-1-(2,4-dichlorophenyl)-4-methyl-1H-pyrazol-3-yl)-5-(1-methylcyclopropyl)-1,3,4-thiadiazole] | 36.3 nM
13 | CCC(C)(C)c1nnc(-c2nn(-c3ccc(Cl)cc3Cl)c(-c3ccccc3)c2C)s1 [Example 420, 2-(1-(2,4-dichlorophenyl)-4-methyl-5-phenyl-1H-pyrazol-3-yl)-5-tert-pentyl-1,3,4-thiadiazole] | 112 nM
14 | Cc1c(-c2nc(C(C)C)n(C(C)C)n2)nn(-c2ccc(Cl)cc2Cl)c1-c1ccc(Cl)cc1 [Example 636, 3-(5-(4-chlorophenyl)-1-(2,4-dichlorophenyl)-4-methyl-1H-pyrazol-3-yl)-1,5-diisopropyl-1H-1,2,4-triazole] | 851 nM
15 | Cc1c(-c2nnnn2C2CCCC2)nn(-c2ccc(Cl)cc2Cl)c1-c1ccc(Br)cc1 [Example 606, 5-(5-(4-bromophenyl)-1-(2,4-dichlorophenyl)-4-methyl-1H-pyrazol-3-yl)-1-cyclopentyl-1H-tetrazole] | 11.6 nM

Further molecules by falling IC50, results first:

Row | IC50 | SMILES
16 | 33.7 nM | COC(C)(C)c1nnc(-c2nn(-c3ccc(Cl)cc3Cl)c(-c3ccc(Cl)cc3)c2C)o1 [Example 98, 2-(5-(4-chlorophenyl)-1-(2,4-dichlorophenyl)-4-methyl-1H-pyrazol-3-yl)-5-(2-methoxypropan-2-yl)-1,3,4-oxadiazole]
17 | 22.6 nM | CCc1c(-c2nnnn2C2CCCC2)nn(-c2ccc(Cl)cc2Cl)c1-c1ccc(Cl)cc1 [Example 610, 5-(5-(4-chlorophenyl)-1-(2,4-dichlorophenyl)-4-ethyl-1H-pyrazol-3-yl)-1-cyclopentyl-1H-tetrazole]
18 | 20.5 nM | Cc1c(-c2nnc(C3CCCCC3)s2)nn(-c2ccc(Cl)cc2Cl)c1-c1ccc(Br)cc1 [Example 373, 2-(5-(4-Bromophenyl)-1-(2,4-dichlorophenyl)-4-methyl-1H-pyrazol-3-yl)-5-cyclohexyl-1,3,4-thiadiazole]
19 | 17.3 nM | C=CCOC(C)(C)c1nnc(-c2nn(-c3ccc(Cl)cc3Cl)c(-c3ccc(Cl)cc3)c2C)o1 [Example 237, 2-(2-(allyloxy)propan-2-yl)-5-(5-(4-chlorophenyl)-1-(2,4-dichlorophenyl)-4-methyl-1H-pyrazol-3-yl)-1,3,4-oxadiazole]
20 | 17.1 nM | CC(C)(C)c1nnc(-c2nn(-c3ccc(Cl)cc3Cl)c(-c3ccc(Br)cc3)c2C(C)(C)O)o1 [Example 218, 2-(5-(4-bromophenyl)-3-(5-tert-butyl-1,3,4-oxadiazol-2-yl)-1-(2,4-dichlorophenyl)-1H-pyrazol-4-yl)propan-2-ol]
21 | 14.8 nM | Cn1nnnc1Cc1c(-c2nnc(C(C)(C)C)o2)nn(-c2ccc(Cl)cc2Cl)c1-c1ccc(Cl)cc1 [Example 332, 2-tert-butyl-5-(5-(4-chlorophenyl)-1-(2,4-dichlorophenyl)-4-((1-methyl-1H-tetrazol-5-yl)methyl)-1H-pyrazol-3-yl)-1,3,4-oxadiazole]
22 | 12.1 nM | CCCc1c(-c2nnc(C3(c4ccc(Cl)cc4)CC3)o2)nn(-c2ccc(Cl)cc2Cl)c1-c1ccc(Cl)cc1 [Example 186, 2-(5-(4-chlorophenyl)-1-(2,4-dichlorophenyl)-4-propyl-1H-pyrazol-3-yl)-5-(1-(4-chlorophenyl)cyclopropyl)-1,3,4-oxadiazole]
23 | 11.8 nM | CCc1c(-c2nnc(C3(C)CC3)s2)nn(-c2ccc(Cl)cc2Cl)c1-c1ccc(Br)cc1 [Example 470, 2-(5-(4-bromophenyl)-1-(2,4-dichlorophenyl)-4-ethyl-1H-pyrazol-3-yl)-5-(1-methylcyclopropyl)-1,3,4-thiadiazole]
24 | 10.8 nM | Cc1c(-c2nnc(C3(c4ccc(Cl)cc4Cl)CC3)s2)nn(-c2ccc(Cl)cc2Cl)c1-c1ccc(Cl)cc1 [Example 459, 2-(5-(4-chlorophenyl)-1-(2,4-dichlorophenyl)-4-methyl-1H-pyrazol-3-yl)-5-(1-(2,4-dichlorophenyl)cyclopropyl)-1,3,4-thiadiazole]
25 | 9.94 nM | CCc1c(-c2nnc(C3CCCC3)s2)nn(-c2ccc(Cl)cc2Cl)c1-c1ccc(Cl)cc1 [Example 396, 2-(5-(4-chlorophenyl)-1-(2,4-dichlorophenyl)-4-ethyl-1H-pyrazol-3-yl)-5-cyclopentyl-1,3,4-thiadiazole]
26 | 6.88 nM | CC(C)(C)c1nnc(-c2nn(-c3ccc(Cl)cc3Cl)c(-c3ccc(Cl)cc3)c2CO)s1 [Example 523, (3-(5-tert-butyl-1,3,4-thiadiazol-2-yl)-5-(4-chlorophenyl)-1-(2,4-dichlorophenyl)-1H-pyrazol-4-yl)methanol]
27 | 6.43 nM | CCc1c(-c2nnc(C3(c4cccc(Cl)c4)CC3)s2)nn(-c2ccc(Cl)cc2Cl)c1-c1ccc(Cl)cc1 [Example 494, 2-(5-(4-chlorophenyl)-1-(2,4-dichlorophenyl)-4-ethyl-1H-pyrazol-3-yl)-5-(1-(3-chlorophenyl)cyclopropyl)-1,3,4-thiadiazole]
28 | 6.03 nM | CC(=O)c1c(-c2nnc(C(C)(C)C)s2)nn(-c2ccc(Cl)cc2Cl)c1-c1ccc(Br)cc1 [Example 533, 1-(5-(4-bromophenyl)-3-(5-tert-butyl-1,3,4-thiadiazol-2-yl)-1-(2,4-dichlorophenyl)-1H-pyrazol-4-yl)ethanone]
29 | 5.29 nM | Clc1ccc(-c2c(Cn3cncn3)c(-c3nnc(C4(c5ccccc5)CCCC4)o3)nn2-c2ccc(Cl)cc2Cl)cc1 [Example 323, 2-(4-((1H-1,2,4-triazol-1-yl)methyl)-5-(4-chlorophenyl)-1-(2,4-dichlorophenyl)-1H-pyrazol-3-yl)-5-(1-phenylcyclopentyl)-1,3,4-oxadiazole]
30 | 4.41 nM | CCc1c(-c2nnc(C3(c4ccc(Cl)cc4)CC3)s2)nn(-c2ccccc2Cl)c1-c1ccc(Br)cc1 [Example 464, 2-(5-(4-bromophenyl)-1-(2-chlorophenyl)-4-ethyl-1H-pyrazol-3-yl)-5-(1-(4-chlorophenyl)cyclopropyl)-1,3,4-thiadiazole]
31 | 4.1 nM | CCc1c(-c2nnc(C3(c4ccc(Cl)cc4)CC3)s2)nn(-c2ccc(Cl)cc2Cl)c1-c1ccc(Br)cc1 [Example 477, 2-(5-(4-bromophenyl)-1-(2,4-dichlorophenyl)-4-ethyl-1H-pyrazol-3-yl)-5-(1-(4-chlorophenyl)cyclopropyl)-1,3,4-thiadiazole]
32 | 2.26 nM | CC(C)(C)c1nnc(-c2nn(-c3ccccc3Cl)c(-c3ccc(Cl)cc3)c2Cn2cncn2)o1 [Example 325, 2-(4-((1H-1,2,4-triazol-1-yl)methyl)-1-(2-chlorophenyl)-5-(4-chlorophenyl)-1H-pyrazol-3-yl)-5-tert-butyl-1,3,4-oxadiazole]
